Reference: patent US20250129021A1, “SMALL MOLECULE PROTEIN SYNTHESIS MODULATORS” (Interdict Bio, Inc., priority 2023, published 2025)

Experiments:
Assay type in all cases: biochemical
BCL-2 = test: In vitro transcription-translation (IVTT) assay, BCL-2 reporter; conditions: HeLa S3 lysate, sfGFP/mCherry ratio, 2 hrs at 30° C.
From the text: All reporter constructs have been cloned into the pT7CFE1-CHis plasmid (ThermoFisher #88860) using Gibson assembly procedures (NEB #E2611L). The parental pT7CFE1-CHis plasmid contains an EMCV IRES at the 5′UTR for translation initiation, a multiple-cloning site (MCS) for gene insertion, an optional C-terminal His-epitope tag, and polyA sequence in the 3′UTR to regulate mRNA stability. All reporters are designed to be inserted at the MCS to include a red fluorescent protein (mCherry), P2A self-cleaving peptide which releases the preceding mCherry protein product, and a fusion open reading frame containing a 3×FLAG epitope, a peptide sequence of interest (TEST), and green fluorescent protein (sfGFP).
Construct Plasmid Preparation: All plasmids are isolated from MACH1 cells (ThermoFisher) grown overnight in ampicillin-containing luria broth, and purified using ZymoPure Express Plasmid Midiprep Kit (Zymo Research). Constructs are sequenced verified and diluted to a working concentration of 110 ng/μL.
HeLa S3 Lysate Preparation: HeLa S3 cell pellets are acquired from Ipracell/Ipratech (Belgium) and shipped as 4 mL frozen cell pellets on dry ice for storage at −80° C. until use. The procedure for lysate preparation is as follows. Prepare 1× Lysis Buffer, cold and stored on ice:
Each preparation takes 8 cell pellets (4 ml packed volume each, approximately 1.0×10^9 cells per pellet). Thaw cell pellets from −80° C. on ice for 90 mins. Lay pellets horizontally on top of the ice and rotate every 30 mins to ensure even thawing. Once thawed, add 4 mL of cold lysis buffer to each pellet, and using a serological pipet, gently pipet up and down to break up clumps. Incubate resuspended cells in ice for an additional 30 mins (plunged into ice). During 30 min incubation, rinse and RNase-zap (Ambion) glass dounces (use loose pestle “A”), gently dry and place on ice until needed. Prepare RNase-free Eppendorf tubes for spinning and for batch storage. Add batch labels to 1.5-1.7 mL RNase-free microcentrifuge tubes (labeling scheme below). Each batch will have an extra 1.5-1.7 mL RNase-free microcentrifuge tube for 40 μL of lysate, label the top of this tube (labeling scheme below). After 30 min incubation, transfer all 8 mL of cell pellet to dounce. Cell lysis is complete after douncing 100 times. Aliquot cell lysis into 1.5-1.7 mL temporary-microcentrifuge tubes. Place tubes in centrifuge with “fins” out, and spin at 1,200×g for 5 mins. After the first spin use a 1 mL pipet to resuspend each tube and repeat spin. This acts as an additional lysis step, is more vigorous and increases lysate yield. During second spin get liquid N2 and a fresh conical tube on ice. After spin is complete, transfer supernatant (lysate) from microcentrifuge tubes into the 50 mL conical tube and keep on ice. Repeat steps 10-14 for all other cell pellets until completed. Once all cell lysate has been transferred to the 50 mL conical tube pipet to mix so the solution is homogenous. Transfer 1 mL of lysate into batch-labeled microcentrifuge tubes and flash freeze in liquid nitrogen. Be sure to pipet up and down to mix throughout transfer step. Place all tubes in the […] for long-term storage.
In vitro transcription-translation assay setup: Each assay includes a master mix containing lysate and shared components, a 96-well plate containing compound titrations for testing, a 96-well DNA plate with reporter constructs to be tested, 96-well skirted PCR plates, and 96-well flat-bottom, black, fluorescent assay plates. […]

MCL-1 = test: In vitro transcription-translation (IVTT) assay, MCL-1 reporter; conditions: HeLa S3 lysate, sfGFP/mCherry ratio, 2 hrs at 30° C.
Method in brief: (§1)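 Reporter: mCherry, P2A, then 3×FLAG-target peptide-sfGFP fusion, IRES-initiated; HeLa S3 lysate IVTT; cpd dilutions 30 μM−0.1 μM half-log in 100% DMSO (dilution-plate conc); DNA added last; 2 h, 30° C; PBS quench.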

CCND1 = test: In vitro transcription-translation (IVTT) assay, CCND1 reporter; conditions: HeLa S3 lysate, sfGFP/mCherry ratio
Method in brief: as §1

MYC = test: In vitro transcription-translation (IVTT) assay, MYC reporter; conditions: HeLa S3 lysate, 2 hrs at 30° C.
Method in brief: as §1

NFKB1 = test: In vitro transcription-translation (IVTT) assay, NFKB1 reporter; conditions: HeLa S3 lysate, sfGFP/mCherry ratio
Description: In vitro transcription-translation assay setup: Each assay includes a master mix containing lysate and shared components, a 96-well plate containing compound titrations for testing, a 96-well DNA plate with reporter constructs to be tested, 96-well skirted PCR plates, and 96-well flat-bottom, black, fluorescent assay plates. Reaction materials setup: (A) Master mix—15 mL conical tube (3 mL of HeLa S3 Lysate described above; 0.6 mL of ThermoFisher Accessory Proteins (#88882); 1.2 ml of ThermoFisher Reaction Mix (#88882); 0.54 mL of nuclease-free Water); (B) 96-Well Master Mix+Compound Plate (Half-log dilutions (30 μM−0.1 μM) of 4 compounds of interest are prepared in 100% DMSO); 96-Well DNA Plate (Five DNA constructs are plated into single columns within the plate. Row 1 of the column contains nuclease free H2O, all other wells contain 110 ng/μL plasmid DNA). Reactions are started by mixing 155 μL of master mix and 3.5 μL of compound serial dilutions, then 9.1 μL of master mix+compound mixture is aliquoted across 5 96-well plates. Reactions begin with final addition of 2 μL of DNA for a 11.1 μL reaction volume in each well. The entire plate is sealed, and incubated for 2 hrs at 30° C. After 2 hrs, quench the assay using 45 μL of PBS, and transfer 50 μL to a flat-bottom black microplate Quantify the sfGFP and mCherry signals from each well on each plate, taking 3 reads of each plate, and perform data analysis below.
In vitro transcription-translation assay data analysis: Each plate is read three times in channels for both sfGFP and mCherry signals. The average signal across these 3 reads is then calculated for further analysis. Control wells containing no DNA reporter are subtracted from reporter wells in the same column to remove auto-fluorescence of the lysate. Then, the ratio of sfGFP/mCherry is calculated per well, and these ratios are averaged across the triplicate experiments on the same plate. Finally, the ratio of each titration concentration is normalized to the no drug control to create the normalized stalling metric. The error on this measurement is determined by propagating error through the averaging and normalization steps. Values are plotted and fit for IC50 determination for each test sequence and titration of compound.

[1] = IVTT assay, MYC reporter, normalized sfGFP/mCherry ratio, half-log dilutions 30 μM-0.1 μM

SMILES | IC50 (BCL-2) | IC50 (MCL-1) | IC50 (CCND1; 2 hrs at 30° C.) | IC50 (MYC; sfGFP/mCherry ratio) | IC50 (NFKB1) | IC50 (CCND1; IVTT assay) | IC50 (MYC; [1])
COc1ccc(C[C@H]2NC[C@H](O)[C@H]2OC(=O)NCc2nc(Cl)c(Cl)[nH]2)cc1 [V187824, (2R,3S,4S)-4-hydroxy-2-[(4-methoxyphenyl)methyl]pyrrolidin-3-yl N-[(4,5-dichloro-1H-imidazol-2-yl)methyl]carbamate] | > 30 µM | > 30 µM | > 30 µM | > 30 µM |  |  | 
COc1ccc(C[C@H]2NC[C@H](O)[C@H]2OC(=O)NCCNc2nc(N)nc3nc[nH]c23)cc1 [Cmpd V188056] | > 30 µM | > 30 µM | > 30 µM | 20 to 30 µM |  |  | 
COc1ccc(C[C@H]2NC[C@H](O)[C@H]2OC(=O)NCCNC(=O)C2(N)CC2)cc1 [V187919, (2R,3S,4S)-4-hydroxy-2-[(4-methoxyphenyl)methyl]pyrrolidin-3-yl N-{2-[(1-aminocyclopropyl)formamido]ethyl}carbamate] | > 30 µM |  | > 30 µM | 20 to 30 µM |  |  | 
COc1ccc(C[C@H]2NC[C@H](O)[C@H]2OC(=O)NCCc2n[nH]cc2C#N)cc1 [Cmpd V188126] | < 10 µM | < 10 µM | < 10 µM |  |  |  | 
COc1ccc(C[C@H]2NC[C@H](O)[C@H]2OC(=O)NNC(=O)c2ccccc2)cc1 [V187812, N′-({[(2R,3S,4S)-4-hydroxy-2-[(4-methoxyphenyl)methyl]pyrrolidin-3-yl]oxy}carbonyl)benzohydrazide] | 10 to 20 µM | < 10 µM | < 10 µM | < 10 µM |  |  | 
COc1ccc(C[C@H]2NC[C@H](O)[C@H]2OC(=O)NCc2cc(Cl)[nH]n2)cc1 [Cmpd V187860] | < 10 µM | < 10 µM | < 10 µM | < 10 µM |  |  | 
COc1ccc(C[C@H]2NC[C@H](O)[C@H]2OC(=O)NCc2cccnn2)cc1 [V187916, (2R,3S,4S)-4-hydroxy-2-[(4-methoxyphenyl)methyl]pyrrolidin-3-yl N-(pyridazin-3-ylmethyl)carbamate] | < 10 µM | < 10 µM | < 10 µM | < 10 µM |  |  | 
COc1ccc(C[C@H]2NC[C@H](O)[C@H]2OC(=O)NC[C@H]2CCCNC2)cc1 [V187930, (2R,3S,4S)-4-hydroxy-2-[(4-methoxyphenyl)methyl]pyrrolidin-3-yl N-[(3S)-piperidin-3-ylmethyl]carbamate] | > 30 µM | 20 to 30 µM | 20 to 30 µM | 20 to 30 µM |  |  | 
COc1ccc(C[C@H]2NC[C@H](O)[C@H]2OC(=O)NCc2ccc(-c3ccccc3)cc2)cc1 [V187977, (2R,3S,4S)-4-hydroxy-2-[(4-methoxyphenyl)methyl]pyrrolidin-3-yl N-{[1,1′-biphenyl]-4-ylmethyl}carbamate] | > 30 µM | > 30 µM | > 30 µM | > 30 µM |  |  | 
COc1ccc(C[C@H]2NC[C@H](O)[C@H]2OC(=O)NC[C@@H]2CCCNC2)cc1 [V187929, (2R,3S,4S)-4-hydroxy-2-[(4-methoxyphenyl)methyl]pyrrolidin-3-yl N-[(3R)-piperidin-3-ylmethyl]carbamate] | > 30 µM | > 30 µM |  | > 30 µM |  |  | 
COc1ccc(C[C@H]2NC[C@H](O)[C@H]2OC(=O)NCc2n[nH]nc2COCc2ccccc2)cc1 [Cmpd V187805] | > 30 µM | > 30 µM | > 30 µM |  |  |  | 

Second part, led by results:

IC50 (BCL-2) | IC50 (MCL-1) | IC50 (CCND1; 2 hrs at 30° C.) | IC50 (MYC; sfGFP/mCherry ratio) | IC50 (NFKB1) | IC50 (CCND1; IVTT assay) | SMILES | IC50 (MYC; [1])
> 30 µM | > 30 µM | > 30 µM | > 30 µM |  |  | COc1ccc(C[C@H]2NC[C@H](O)[C@H]2OC(=O)NCc2cccc(-c3ccccc3)c2)cc1 [V187982, (2R,3S,4S)-4-hydroxy-2-[(4-methoxyphenyl)methyl]pyrrolidin-3-yl N-{[1,1′-biphenyl]-3-ylmethyl}carbamate] | 
> 30 µM | > 30 µM |  | > 30 µM |  |  | COc1ccc(C[C@H]2NC[C@H](O)[C@H]2OC(=O)NCCc2ccc(-c3ccccc3)cc2)cc1 [V187979] | 
< 10 µM | < 10 µM | < 10 µM | < 10 µM |  |  | COc1ccc(C[C@H]2NC[C@H](O)[C@H]2OC(=O)NCc2ccnc(OC)c2)cc1 [V188051, (2R,3S,4S)-4-hydroxy-2-[(4-methoxyphenyl)methyl]pyrrolidin-3-yl N-[(2-methoxypyridin-4-yl)methyl]carbamate] | 
> 30 µM | > 30 µM | 20 to 30 µM | 10 to 20 µM |  |  | COc1ccc(C[C@H]2NC[C@H](O)[C@H]2OC(=O)NCCNc2ncnc3nc[nH]c23)cc1 [V188060, (2R,3S,4S)-4-hydroxy-2-[(4-methoxyphenyl)methyl]pyrrolidin-3-yl N-[2-(7H-purin-6-ylamino)ethyl]carbamate] | 
> 30 µM | 10 to 20 µM | 10 to 20 µM |  |  |  | COc1ccc(C[C@H]2NC[C@H](O)[C@H]2OC(=O)NCCNC(=O)[C@@H]2CCCN2)cc1 [V188015, (2R,3S,4S)-4-hydroxy-2-[(4-methoxyphenyl)methyl]pyrrolidin-3-yl N-{2-[(2S)-pyrrolidin-2-ylformamido]ethyl}carbamate] | 
10 to 20 µM | < 10 µM |  | < 10 µM |  |  | COc1ccc(C[C@H]2NC[C@H](O)[C@H]2OC(=O)NCc2ccncc2Cl)cc1 [V188052, (2R,3S,4S)-4-hydroxy-2-[(4-methoxyphenyl)methyl]pyrrolidin-3-yl N-[(3-chloropyridin-4-yl)methyl]carbamate] | 
 |  |  |  | < 10 µM | < 10 µM | CNC1(c2ccc(CNC(=O)O[C@@H]3[C@@H](O)CN[C@@H]3Cc3ccc(-c4cnco4)cc3)cc2)CC1 [V192288, (2R,3S,4S)-4-hydroxy-2-{[4-(1,3-oxazol-5-yl)phenyl]methyl}pyrrolidin-3-yl N-({4-[1-(methylamino)cyclopropyl]phenyl}methyl)carbamate] | < 10 µM
 |  |  |  | < 10 µM | < 10 µM | O=C(NCc1cccc(F)c1)O[C@@H]1[C@@H](O)CN[C@@H]1Cc1ccc(-c2cnco2)nc1 [V192862, (2R,3S,4S)-4-hydroxy-2-{[6-(1,3-oxazol-5-yl)pyridin-3-yl]methyl}pyrrolidin-3-yl N-[(3-fluorophenyl)methyl]carbamate] | < 10 µM
